Assays:
[1] = system: response to skin puncture; assay: Anaesthesia by infiltration (subcutaneous, back puncture); type: in vivo, guinea pigs; settings: for Infiltration anaesthesia DL50/CE50: analogous to therapeutic index, DL50 i.p.; for Infiltration anaesthesia CE50: concentration in percent achieving 50% of total responses, hydrochloride salts; for Infiltration anaesthesia DL50/CE50 relative to lidocaine / Infiltration anaesthesia activity with respect to lidocaine: lidocaine = 1
Experimental: The anaesthesia by infiltration has been determined in guinea pigs according to the method of E. Bulbring and I. Wajda, (Journal of Pharmacol. Exper. Ther. 85, 78, 1945). In each experiment, four doses of the substance in 0.25 cc of physiological saline solution is injected subcutaneously on the back after removal of hair. After five minutes, each animal is punctured six times at intervals of […].
The test was repeated every five minutes for a period of 30 minutes. The extent of anaesthesia by infiltration was measured quantitatively by determining the sum of the instances in which the animal remained immobile during the thirty minute period on 36 possible blinks.

[2] = system: reflux of contraction of the lower limbs (lumbar plexus); assay: Anaesthesia by conduction (lumbar plexus); type: in vivo, frogs; settings: for Conduction anaesthesia DL50/t' / Conduction anaesthesia 1/t'max. (c = 1%) with respect to lidocaine: c = 1%; for Conduction anaesthesia DL50/t': DL50 i.p.; for Conduction anaesthesia 1/t'max. (c = 1%) with respect to lidocaine / Conduction anaesthesia DL50/t' relative to lidocaine: lidocaine = 1
Source text: Anaesthesia by conduction has been determined on frogs according to the method of E. Bulbring and I. Wajda (Journal Pharmacol. Exper. Ther., 85, 78, 1945). The compounds dissolved in physiological saline solution are introduced into the cavity obtained by a transversal incision in the abdomen and separating the viscera in order to expose the lumbar plexus. The period of time necessary to eliminate the reflux of contraction of the lower limbs stimulated by immersion of both posterior legs into hydrochloric acid of increasing concentration between 0.05-0.1-0.2 N for a period not in excess of ten seconds, at intervals of one minute is determined. The extent of anaesthesia of conduction has been determined by measuring the period of time required for each compound in three different concentrations, 0.2%-0.5%-1.0% in order to abolish the reflex of contraction with the concentration of hydrochloric acid indicated hereinabove.

[3] = system: Swiss rats; assay: in vivo; settings: lidocaine = 1
Source text: (§1) The behavior of the animals has then been followed for a period of five days. The DL50 has been determined according to the method of I. T. Litchfield and F. Wilcoxon, (J. Pharmacol. Exper. Ther., 96, 99, 1949). The compound numbers in Table II correspond to the numbers in Table I.

[4] = in vivo; settings: rat, in vivo, ip; 5 days; hydrochloride salts; range in parentheses; read-out: DL50 i.p.
Source text: as §1

[5] = system: aconitine-induced ventricular arrhythmia; assay: Anti-arrhythmic activity, aconitine infusion; type: in vivo, Wistar rats; settings: for Aconitine i.v. necessary to induce ventricular arrhythmia: 3 min before aconitine 10 mcg/kg/min; for Anti-arrhythmic activity compared with lidocaine: times more active than lidocaine; for Anti-arrhythmic activity compared with quinidine: times more active than quinidine
Experimental: (§2) The data reported hereinbelow relate in every instance to the hydrochloride salts of the individual compounds.
This determination has been made in Wistar rats, anaesthetized with ethylurethane, (1 g/kg i.p.), according to the method of B. Vargaftig and J. L. Coigner (European Journal Pharmacology, 6, 49, 1969). The compounds dissolved in physiological saline solution, are injected intravenously three minutes prior to the infusion of aconitine, (10 mcg/kg/min.). The extent of anti-arrhythmic activity is determined quantitatively by determining the amount of aconitine necessary to induce ventricular arrhythmia.

[6] = system: corneal reflux; assay: Surface anaesthesia (corneal reflux, conjunctival sac); settings: for Surface anaesthesia DL50/CE50: analogous to therapeutic index, DL50 i.p.; for Surface anaesthesia CE50: concentration in percent achieving 50% of total responses, pH 7 saline, hydrochloride salts; for Surface anaesthesia activity with respect to lidocaine: lidocaine = 1
Experimental: as §2
The surface anaesthesia has been determined in rabbits according to the method of M. R. A. Change and H. Lobstein (J. Pharmacol. Exper. Ther., 82, 203, 1944). The compounds dissolved in physiological saline solution of pH 7 were injected into the conjunctival sac and the corneal reflux was induced with the brush of Frey six times at intervals of five minutes for a total period of 40 minutes.

SMILES: CCN(CC)Cc1ccccc1C(=O)Nc1c(C)cccc1Cl [Compound 13]
- Infiltration anaesthesia DL50/CE50 [1]: 58
- Infiltration anaesthesia CE50 [1]: 0.28%
- Infiltration anaesthesia DL50/CE50 relative to lidocaine [1]: 0.31
- Infiltration anaesthesia activity with respect to lidocaine [1]: 2.68
- Conduction anaesthesia DL50/t' [2]: 16
- Conduction anaesthesia 1/t'max. (c = 1%) with respect to lidocaine [2]: 11.1
- Conduction anaesthesia DL50/t' relative to lidocaine [2]: 1.23
- DL50 i.p. relative to lidocaine [3]: 0.11
- LD50 at 120 h [4]: 16.3 mg/kg
- Aconitine i.v. necessary to induce ventricular arrhythmia ([5]; 0.6 mg/kg i.v.): 48 ± 6 µg/kg
- Aconitine i.v. necessary to induce ventricular arrhythmia ([5]; 1.0 mg/kg i.v.): 65 ± 7 µg/kg
- Aconitine i.v. necessary to induce ventricular arrhythmia ([5]; 3.0 mg/kg i.v.): 67 ± 7 µg/kg
- Anti-arrhythmic activity compared with lidocaine [5]: at least twenty times more active than lidocaine
- Anti-arrhythmic activity compared with quinidine [5]: at least ten times more active than quinidine
- Surface anaesthesia DL50/CE50 [6]: 27
- Surface anaesthesia CE50 [6]: 0.60%
- Surface anaesthesia activity with respect to lidocaine [6]: 3.83

SMILES: CCN(CC)Cc1ccccc1C(=O)Nc1c(C)cccc1C(=O)OC [Compound 14]
- Infiltration anaesthesia DL50/CE50 [1]: 57
- Infiltration anaesthesia CE50 [1]: 0.43%
- Infiltration anaesthesia DL50/CE50 relative to lidocaine [1]: 0.30
- Infiltration anaesthesia activity with respect to lidocaine [1]: 1.74
- Conduction anaesthesia DL50/t' [2]: 5
- Conduction anaesthesia 1/t'max. (c = 1%) with respect to lidocaine [2]: 2.2
- Conduction anaesthesia DL50/t' relative to lidocaine [2]: 0.38
- DL50 i.p. relative to lidocaine [3]: 0.17
- LD50 at 120 h [4]: 24.7 mg/kg
- Aconitine i.v. necessary to induce ventricular arrhythmia ([5]; 0.6 mg/kg i.v.): 45 ± 8 µg/kg
- Aconitine i.v. necessary to induce ventricular arrhythmia ([5]; 1.0 mg/kg i.v.): 60 ± 7 µg/kg
- Aconitine i.v. necessary to induce ventricular arrhythmia ([5]; 3.0 mg/kg i.v.): 81 ± 7 µg/kg
- Anti-arrhythmic activity compared with lidocaine [5]: at least twenty times more active than lidocaine
- Anti-arrhythmic activity compared with quinidine [5]: at least ten times more active than quinidine
- Surface anaesthesia DL50/CE50 [6]: 60
- Surface anaesthesia CE50 [6]: 0.41%
- Surface anaesthesia activity with respect to lidocaine [6]: 5.61

SMILES: CCN(CC)Cc1cccc(C(=O)Nc2c(C)cccc2C)c1 [Compound 2]
- Infiltration anaesthesia DL50/CE50 [1]: 291
- Infiltration anaesthesia CE50 [1]: 0.23%
- Infiltration anaesthesia DL50/CE50 relative to lidocaine [1]: 1.54
- Infiltration anaesthesia activity with respect to lidocaine [1]: 3.26
- Conduction anaesthesia DL50/t' [2]: 67
- Conduction anaesthesia 1/t'max. (c = 1%) with respect to lidocaine [2]: 11.1
- Conduction anaesthesia DL50/t' relative to lidocaine [2]: 5.15
- DL50 i.p. relative to lidocaine [3]: 0.47
- LD50 at 120 h [4]: 67 mg/kg
- Aconitine i.v. necessary to induce ventricular arrhythmia ([5]; 1.0 mg/kg i.v.): 43 ± 8 µg/kg
- Aconitine i.v. necessary to induce ventricular arrhythmia ([5]; 3.0 mg/kg i.v.): 77 ± 9 µg/kg
- Aconitine i.v. necessary to induce ventricular arrhythmia ([5]; 6.0 mg/kg i.v.): 82 ± 9 µg/kg
- Surface anaesthesia DL50/CE50 [6]: 163
- Surface anaesthesia CE50 [6]: 0.41%
- Surface anaesthesia activity with respect to lidocaine [6]: 5.60

Reference: patent publication US4305940A, “Benzamides with local anaesthetic and antiarrhythmic activity, salts, and method of preparation thereof and pharmaceutical compositions therefrom” (B.B.R. Boehringer Biochemia Robin S.p.A., priority 1979, dated 1981)
